T1: MHPH6 (Microbacterium maritypicum, UniProt D6R8X8)
T1 construct: expressed in transfected cells; host or cells: E. coli BLR transformed with pSHP11H (pTTQ18 derivative), IPTG-induced
T1 sequence (D6R8X8 with tags, fused parts or gaps): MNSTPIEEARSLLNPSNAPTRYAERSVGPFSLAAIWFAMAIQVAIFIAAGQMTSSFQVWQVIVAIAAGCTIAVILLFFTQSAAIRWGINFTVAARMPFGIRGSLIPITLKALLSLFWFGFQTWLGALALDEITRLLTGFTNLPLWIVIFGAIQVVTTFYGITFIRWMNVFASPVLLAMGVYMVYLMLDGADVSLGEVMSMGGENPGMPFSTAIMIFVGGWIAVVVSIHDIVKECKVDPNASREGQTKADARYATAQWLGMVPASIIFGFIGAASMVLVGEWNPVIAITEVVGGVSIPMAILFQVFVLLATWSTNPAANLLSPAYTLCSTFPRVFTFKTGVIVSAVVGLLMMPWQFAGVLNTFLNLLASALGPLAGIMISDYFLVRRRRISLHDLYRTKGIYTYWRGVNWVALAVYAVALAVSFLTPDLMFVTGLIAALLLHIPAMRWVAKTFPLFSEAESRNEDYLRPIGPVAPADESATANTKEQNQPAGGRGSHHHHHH

B1: MHPH6: MHP hydantoin transporter protein containing the RGSHis6-Tag at the C-terminal (SEQ ID No. 3/4) (protein)
chain: T1 sequence (D6R8X8 with tags, fused parts or gaps)
modifications: C-terminal RGSHis6 tag; RGSH6

Legend:
MHPH6 [1] = target: T1, MHPH6; test: Substrate screening: competitive inhibition of 3H-L-BH uptake by E. coli BLR/pSHP11H; type: cell-based, Microbacterium liquefaciens AJ3912; conditions: for competitive inhibitory activity against L-BH uptake (in words): 250 μM cold candidate; for competitive inhibitory activity against L-BH uptake (in words) / uptake activity of 3H-L-BH (relative activity, no compound added = 100%): uptake after 3 minutes; for uptake activity of 3H-L-BH (relative activity, no compound added = 100%): 250 μM cold compound; for relative affinity for MHPH6 (affinity of L-BH = 1): curve-fitted assuming simple competitive inhibition, variety of concentrations
Description: 25 μM of ^3H-L-BH was employed as the RI-labeled substrate in the above-described reaction using intact cells, and a reaction liquid was prepared by adding 250 μM of a candidate substrate (cold). The uptake amount of ^3H-L-BH after 3 minutes from the addition thereof was compared with the amount without the candidate substrate, to calculate the competitive inhibitory activity of each candidate substrate against L-BH, for evaluating the potentiality of each candidate substance as the substrate for MHP.
Affinity of a variety of compounds to MHPH6 was measured based on the competitive inhibitory activity thereof against L-BH uptake by E. coli BLR/pSHP11H, to search for substrates for MHPH6 (FIG. 8). […] When the four compounds showing strong inhibitive activity were added, the uptake activities of ^3H-L-BH (the relative activity with respect to when not adding any compound as 100%) were 7% (L-BH, theoretical value 9%), 47% (D-BH), 3% (L-IMH) and 24% (D- IMH).
The competitive inhibition experiments were carried out, as for substrate screening, with a variety of substrate concentrations. As a result, the affinity of D- and L-BH and D- and L-IMH for MHPH6 was different from one another, and the intensity of the affinity was in the order of L-IMH (solid triangle), L-BH (solid circle), D-IMH (open triangle) and D-BH (open circle) from the strongest. Assuming that ^3H-L-BH and the added cold compound were under simple competitive inhibition, the experimental results were curve-fitted. As a result, the relative affinity for each compound was calculated to be 5.32 (L-IMH), 1.05 (L-BH, experimental value), 0.96 (D-IMH), and 0.20 (D-BH), with respect to the affinity of L-BH and MHPH6 being 1.

MHPH6 [2] = target: T1, MHPH6; test: Uptake assay using intact cells of E. coli BLR/pSHP11H (RI-labelled substrate); type: cell-based; conditions: for initial uptake rate / uptake amount 5 minutes after the addition of the substrate: induced E. coli BLR/pSHP11H, 25 μM substrate; for initial uptake rate: data at 15 seconds after substrate addition; for uptake amount 5 minutes after the addition of the substrate: pH 6.6, 25° C., per dry cell weight
Text: The activity of the hydantoin transporter can be measured by an uptake assay using intact cells. The uptake assay using intact cells may be carried out in accordance with the method of West, and Henderson (I. C. West (1970) Lactose transport coupled to proton movements in Escherichia coli, Biochem. Biophys. Res. Commun. 41: 655-661; P. J. F. Henderson and A. J. S. Macpherson (1986), Assay, genetics, proteins, and reconstitution of proton-linked galactose, arabinose, and xylose transport systems of Escherichia coli, Methods Enzymol. 125: 387-429).
Specifically, the uptake reaction may be carried out by adding an RI-labelled substrate (^3H—BH (benzyl hydantoin), ^3H—IMH (indolylmethyl hydantoin)) to a suspension of the cells that express the hydantoin transporter. After initiating the reaction, sampling may be conducted at time intervals. Immediately after sampling, each aliquot may be collected by a filter of 0.45 μm pore size (preincubated in a washing liquid of 150 mM KCl, 5 mM MES (pH 6.6)) and washed thoroughly by the rinsing liquid. Thereafter, by measuring radioactivity remaining on the filter with a liquid scintillation counter, the substrate uptaken into the cells is quantified, and the hydantoin-transporter activity can be determined.
The methods of West (I. C. West (1970), Lactose transport coupled to proton movements in Escherichia coli. Biochem. Biophys. Res. Commun. 41: 655-661.) and Henderson (P. J. F. Henderson and A. J. S. Macpherson (1986), Assay, genetics, proteins, and reconstitution of proton-linked galactose, arabinose, and xylose transport systems of Escherichia coli, Methods Enzymol. 125: 387-429.) were employed.
The collected cells were washed three times with 150 mM KCl, 5 mM MES (2-[N-Morpholino]ethanesulphonic acid) (pH 6.6) and were then used in the assay. The basic reaction conditions included uptake initiation by adding glycerol to a final concentration of 20 mM to a cell suspension having an absorbance at about A680 of approximately 2 to 4, followed by aeration at 25° C. for 3 minutes, and then addition of an RI-labelled substrate (relative RI activity: ^3H—BH 107 Bq/nmol, ^3H—IMH 241 Bq/nmol) to a final concentration of 25 μM. After the onset of the reaction (aeration was continued), sampling was done over time. Immediately after the sampling, each aliquot was passed through a filter with a pore size of 0.45 μm (pre-incubated in a washing solution of 150 mM KCl and 5 mM MES (pH 6.6)) which was then washed sufficiently with a washing solution. The radiation remaining on the filter was measured by a liquid scintillation counter. The uptake activity was expressed in terms of the dry cell weight that was calculated by taking the absorbance A680=1 as the dry cell concentration of 0.68 mg/ml (Ashworth and Kornberg, Biological Science, 165(999):179-188 (1966)). Furthermore, the initial uptake rate was calculated based on the data obtained at 15 seconds after the addition of substrate, and expressed in terms of the uptake amount per minute.
In the measurement of the inhibitory activity of the inhibitor, the inhibitor was added at the time of onset of aeration. That is, it was pre-incubated with the cells for 3 minutes prior to the substrate addition. The inhibitor used was 2,4-dinitrophenol (DNP), and the final concentration during the reaction was 20 mM.
For varying the pH of the reaction liquid, 10 mM potassium acetate (pH 4.0), 5 mM MES (pH 4.9, 6.1, 6.6, 7.1, 7.9), 10 mM Tris-HCl (pH 8.0) and 10 mM glycin-NaOH (pH 10.0) were used when appropriate.

[3] = CD spectroscopy heat stability of purified MHPH6; type: physicochemical
Description: The buffer solution suspending the purified MHPH6 was replaced by 10 mM sodium phosphate (pH 7.6) with 0.05% (w/v) DDM, using an ultrafiltration apparatus (Centricon C50, Millipore). In this buffer solution, the protein concentration was adjusted to 50 μg/ml, and the CD spectroscopy was carried out at 10° C. (JASCO J-715 Spectropolarimeter). The measurement was performed at a wavelength ranging from 190 to 260 nm, and the average value of twenty measurements was taken. Furthermore, the change in the secondary structure of MHPH6 (heat stability) was observed by measuring the change of the CD unit value at a wavelength of 222 nm as the temperature of the sample was varied from 10° C.→90° C.→10° C. (the temperature change was made 10° C. at a time, and the length of time at each temperature was approximately 10 minutes).

[4] = CD at 222 nm, 10 mM sodium phosphate pH 7.6, 0.05% DDM

Molecule	competitive inhibitory activity against L-BH uptake (in words) (MHPH6 [1]; 25 μM 3H-L-BH)	uptake activity of 3H-L-BH (relative activity, no compound added = 100%) (MHPH6 [1]; 25 μM 3H-L-BH) [%]	relative affinity for MHPH6 (affinity of L-BH = 1) (MHPH6 [1])	also measured
O=C1NC(=O)C(Cc2ccccc2)N1 [L-BH, 5-L-benzyl hydantoin]	strong activity of competitive inhibition	7	1.05	uptake activity of 3H-L-BH, theoretical value (MHPH6 [1]; 250 μM cold L-BH, 25 μM 3H-L-BH): 9%; initial uptake rate (MHPH6 [2]): 0.64 nmol/mg/min; uptake amount 5 minutes after the addition of the substrate (MHPH6 [2]): 0.27 nmol/mg
CC(C)C[C@@H]1NC(=O)NC1=O [5-L-isobutyl hydantoin]	Weaker inhibitory activity	–	–	–
O=C1NC(=O)[C@H](Cc2c[nH]c3ccccc23)N1 [L-IMH, 5-L-indolylmethyl hydantoin]	strong activity of competitive inhibition	3	5.32	affinity relative to that of L-BH (estimated) (MHPH6 [1]; L-IMH versus L-BH): approximately 5 times; initial uptake rate (MHPH6 [2]): 2.5 nmol/mg/min; uptake amount 5 minutes after the addition of the substrate (MHPH6 [2]): 0.91 nmol/mg; initial uptake rate as compared with the initial rate at pH 6.6 (MHPH6 [2]; pH 4.0): approximately 10%; initial uptake rate as compared with the initial rate at pH 6.6 (MHPH6 [2]; pH 10.0): approximately 10%; pH at which initial uptake rate is maximal (MHPH6 [2]; pH varied between 4.0 and 10.0, induced and uninduced samples): 6.6; initial uptake rate, L-IMH relative to L-BH (MHPH6 [2]; ratio L-IMH / L-BH): 3.9 times; uptake amount 5 minutes after addition of substrate, L-IMH relative to L-BH (MHPH6 [2]; ratio L-IMH / L-BH): 3.4 times
NC(=O)NC1NC(=O)NC1=O (centres unmarked) [allantoin, reference compound]	did not result in any inhibition	–	–	–
CC(C)C1NC(=O)NC1=O (racemic) [5-DL-isopropyl hydantoin]	Weaker inhibitory activity	–	–	–
CC(C)CC1NC(=O)NC1=O (racemic) [5-DL-isobutyl hydantoin]	Weaker inhibitory activity	–	–	–
CC(C)[C@@H]1NC(=O)NC1=O [5-L-isopropyl hydantoin]	Weaker inhibitory activity	–	–	–
O=C1NC(=O)C(Cc2ccc(O)cc2)N1 (racemic) [5-DL-p-hydroxybenzyl hydantoin]	Weaker inhibitory activity	–	–	–
O=C1NC(=O)[C@@H](Cc2ccccc2)N1 [D-BH]	strong activity of competitive inhibition	47	0.20	–
O=C1NC(=O)[C@@H](Cc2c[nH]c3ccccc23)N1 [D-IMH]	strong activity of competitive inhibition	24	0.96	–
O=[N+]([O-])c1ccc(O)c([N+](=O)[O-])c1 [DNP, 2,4-dinitrophenol, reference compound]	–	–	–	effect on L-IMH uptake, induced sample (MHPH6 [2]; DNP 20 mM, pre-incubated 3 minutes, induced sample): decreased the amount of L-IMH uptake; effect on L-IMH uptake, uninduced sample (MHPH6 [2]; DNP 20 mM, pre-incubated 3 minutes, uninduced sample): substantially no effect
CC1NC(=O)NC1=O (racemic) [5-DL-methyl hydantoin]	Weaker inhibitory activity	–	–	–
B1	–	–	–	temperature at which higher structure began to be destroyed [3, 4]: ≥ 30 °C; temperature at which higher structure was almost completely destroyed [3, 4]: 70 °C; reversibility of thermal denaturation ([3]; temperature 10→90→10° C.): irreversible

— patent publication US7851610B2, “Transporter protein” (Ajinomoto Co., Ltd., priority 2003, dated 2010)
